The source of these data is patent US4971963A, “Cephem compounds, and use” (Takeda Chemical Industries, Ltd., priority 1988, dated 1990).

Test in all cases: Minimal inhibitory concentration, agar dilution method
Format in all cases: cell-based
Background: In agar dilution, organisms are placed on agar that contains the substance at set levels.

The subject of one test is E. coli T 7. The note with it: Escherichia coli, T7, Trypticase soy agar, about 10^8 CFU/ml, 37° C., 18 hours. The protocol:
(§1) The Minimal Inhibitory Concentrations of the tested compounds were determined according to the agar dilution method. Namely, 1.0 ml each of aqueous solution of the test compounds diluted by serial dilutions was poured into test petri dishes, subsequently 9.0 ml each of Trypticase soy agar was poured into the dishes and mixed.
(§2) On each of the mixed agar plates, one loopful of bacterial suspension (about 10^8 CFU/ml) of test microorganism was streaked.
(§3) After the incubation at 37° C. for 18 hours, the lowest concentration of the tested compounds in the medium which caused apparently complete inhibition of growth of the test microorganism was taken to be minimal inhibitory concentration.

A further test deals with S. aureus N-241. To be noted: Staphylococcus aureus, N241, Trypticase soy agar, about 10^8 CFU/ml, 37° C., 18 hours. The protocol: as §1, §2, §3
The next test relates to S. aureus J-108. To be noted: Staphylococcus aureus, J108, Trypticase soy agar, about 10^8 CFU/ml, 37° C., 18 hours. The method, then: as §1, §2, §3
A further test deals with E. cloacae IFO12937. The note with it: Enterobacter cloacae, Trypticase soy agar, about 10^8 CFU/ml, 37° C., 18 hours. The protocol:
as §1, §2, §3

For another test, the system named is S. aureus 1840. The protocol: as §1, §2, §3
In the next test the test system is S. aureus 308 A-1. To be noted: Staphylococcus aureus, 308A1, Trypticase soy agar, about 10^8 CFU/ml, 37° C., 18 hours. The protocol: as §1, §2, §3
In the next test the test system is P. vulgaris IFO3988. To be noted: Proteus vulgaris, Trypticase soy agar, about 10^8 CFU/ml, 37° C., 18 hours. The protocol:
as §1, §2, §3

A further test relates to S. aureus FDA 209P. The note with it: Staphylococcus aureus, FDA209P. The protocol: as §1, §2, §3
For the next test, the system named is K. pneumoniae DT. To be noted: Klebsiella pneumoniae, Trypticase soy agar, about 10^8 CFU/ml, 37° C., 18 hours. The method, then: as §1, §2, §3
The next test has as its system P. mirabilis IFO3849. To be noted: Proteus mirabilis, Trypticase soy agar, about 10^8 CFU/ml, 37° C., 18 hours. The protocol: as §1, §2, §3
For another test, the system named is M. morganii IFO3168. The note with it: Morganella morganii, Trypticase soy agar, about 10^8 CFU/ml, 37° C., 18 hours. The method, then: as §1, §2, §3
For the next test, the system named is E. coli O-111. To be noted: Escherichia coli, O111, Trypticase soy agar, about 10^8 CFU/ml, 37° C., 18 hours. The protocol:
as §1, §2, §3

Another test has as its system E. coli NIHJ JC-2. The note with it: Escherichia coli, NIHJJC2, Trypticase soy agar, about 10^8 CFU/ml, 37° C., 18 hours. The protocol:
as §1, §2, §3

Another test concerns C. freundii IFO12681. The note with it: Citrobacter freundii, Trypticase soy agar, about 10^8 CFU/ml, 37° C., 18 hours. The method, then:
as §1, §2, §3

In a further test the test system is S. marcescens IFO12648. The note with it: Serratia marcescens, Trypticase soy agar, about 10^8 CFU/ml, 37° C., 18 hours. The method, then: as §1, §2, §3
The next test relates to P. aeruginosa IFO3455. The note with it: Pseudomonas aeruginosa, Trypticase soy agar, about 10^8 CFU/ml, 37° C., 18 hours. The protocol:
as §1, §2, §3

Where [1] appears, read: Staphylococcus aureus, S. aureus 1840, Trypticase soy agar, about 10^8 CFU/ml, 37° C., 18 hours, read-out: MIC.
The mark [2] stands for this setting: S. aureus FDA 209P, Trypticase soy agar, about 10^8 CFU/ml, 37° C., 18 hours, read-out: MIC.

In brackets after ≈: the same amount, converted by molar mass. Where two headings read alike, the source gives them in different places.

As to `N=C(N)CSCCn1nnnc1SCC1=C(C(=O)O)N2C(=O)[C@@H](NC(=O)/C(=N\O)c3csc(N)n3)[C@H]2SC1` [Example 44], the MIC in the test with E. coli T 7 was 0.78 µg/mL (≈ 1.3 µM); in the test on S. aureus N-241 it was 3.13 µg/mL (≈ 5.22 µM); with S. aureus J-108 it was 3.13 µg/mL (≈ 5.22 µM); in the test with E. cloacae IFO12937 it was 3.13 µg/mL (≈ 5.22 µM); in the test on S. aureus 1840 (setting [1]) it was 0.2 µg/mL (≈ 0.333 µM); against S. aureus 308 A-1, not above 0.1 µg/mL. Further, the MIC against P. vulgaris IFO3988 is 0.39 µg/mL (≈ 0.65 µM); with S. aureus FDA 209P (setting [2]), not above 0.1 µg/mL; in the test with K. pneumoniae DT, 0.2 µg/mL (≈ 0.333 µM); against P. mirabilis IFO3849 it was 3.13 µg/mL (≈ 5.22 µM); in the test with M. morganii IFO3168, 0.39 µg/mL (≈ 0.65 µM); against E. coli O-111 it was not above 0.1 µg/mL. Besides, the MIC with E. coli NIHJ JC-2 came to 0.2 µg/mL (≈ 0.333 µM); with C. freundii IFO12681, 0.39 µg/mL (≈ 0.65 µM); in the test with S. marcescens IFO12648, 0.39 µg/mL (≈ 0.65 µM); with P. aeruginosa IFO3455 it was 12.5 µg/mL (≈ 20.8 µM).
On to `CO/N=C(\C(=O)N[C@@H]1C(=O)N2C(C(=O)O)=C(CSc3snc(SCC(=N)N)c3C#N)CS[C@H]12)c1csc(N)n1` [Example 15, 3-[(3-Amidinomethylthio-4-cyanoisothiazol-5-yl)thiomethyl]-7β-[2-(2-aminothiazol-4-yl)-(Z)-2-methoxyiminoacetamido]-3-cephem-4-carboxylic acid], for which the MIC in the test with E. coli T 7 is 0.39 µg/mL (≈ 0.623 µM); against S. aureus N-241, 6.25 µg/mL (≈ 9.99 µM); in the test on S. aureus J-108, 6.25 µg/mL (≈ 9.99 µM); in the test with E. cloacae IFO12937, 0.78 µg/mL (≈ 1.25 µM); against S. aureus 1840 (Staphylococcus aureus, 1840, 18 h), 0.39 µg/mL (≈ 0.623 µM); with S. aureus 308 A-1, 0.2 µg/mL (≈ 0.32 µM). Besides, the minimal inhibitory concentration (MIC) in the test on P. vulgaris IFO3988 is 0.2 µg/mL (≈ 0.32 µM); with S. aureus FDA 209P (setting [2]), 0.2 µg/mL (≈ 0.32 µM); against K. pneumoniae DT it was 0.2 µg/mL (≈ 0.32 µM); against P. mirabilis IFO3849, 0.78 µg/mL (≈ 1.25 µM); against M. morganii IFO3168, 0.2 µg/mL (≈ 0.32 µM); in the test with E. coli O-111, not above 0.1 µg/mL. The MIC in the test on E. coli NIHJ JC-2 is 0.39 µg/mL (≈ 0.623 µM); in the test with C. freundii IFO12681, 0.2 µg/mL (≈ 0.32 µM); in the test on S. marcescens IFO12648 it was 0.39 µg/mL (≈ 0.623 µM); with P. aeruginosa IFO3455, 6.25 µg/mL (≈ 9.99 µM).
Regarding `N=C(N)CSc1nnc(SCC2=C(C(=O)O)N3C(=O)[C@@H](NC(=O)/C(=N\O)c4csc(N)n4)[C@H]3SC2)s1` [Example 39, 3-[(2-Amidinomethylthio-1,3,4-thiadiazol-5-yl)thiomethyl]-7β-[2-(2-aminothiazol-4-yl)-(Z)-2-hydroxyiminoacetamido]-3-cephem-4-carboxylic acid], the MIC in the test on E. coli T 7 was 1.56 µg/mL (≈ 2.65 µM); against S. aureus N-241 it was 1.56 µg/mL (≈ 2.65 µM); against S. aureus J-108, 1.56 µg/mL (≈ 2.65 µM); in the test on E. cloacae IFO12937, 3.13 µg/mL (≈ 5.33 µM); with S. aureus 1840 (setting [1]), 0.39 µg/mL (≈ 0.664 µM); with S. aureus 308 A-1, 0.2 µg/mL (≈ 0.34 µM). In addition, the MIC against P. vulgaris IFO3988 is 0.78 µg/mL (≈ 1.33 µM); in the test with S. aureus FDA 209P (setting [2]), 0.2 µg/mL (≈ 0.34 µM); in the test with K. pneumoniae DT it was not above 0.1 µg/mL; in the test on P. mirabilis IFO3849 it was 1.56 µg/mL (≈ 2.65 µM); against M. morganii IFO3168, 0.39 µg/mL (≈ 0.664 µM); in the test with E. coli O-111, not above 0.1 µg/mL. For the same compound, the MIC came out at 0.39 µg/mL (≈ 0.664 µM) in the test on E. coli NIHJ JC-2, 0.39 µg/mL (≈ 0.664 µM) in the test with C. freundii IFO12681, 0.78 µg/mL (≈ 1.33 µM) with S. marcescens IFO12648 and 12.5 µg/mL (≈ 21.3 µM) with P. aeruginosa IFO3455.
`N#Cc1c(SCC(=N)N)nsc1SCC1=C(C(=O)O)N2C(=O)[C@@H](NC(=O)/C(=N\O)c3csc(N)n3)[C@H]2SC1` [Example 42, 3-[(3-Amidinomethylthio-4-cyanoisothiazol-5-yl)thiomethyl]-7β-[2-(2-aminothiazol-4-yl)-(Z)-2-hydroxyiminoacetamido]-3-cephem-4-carboxylic acid]: the MIC is 1.56 µg/mL (≈ 2.55 µM) in the test with E. coli T 7; 0.78 µg/mL (≈ 1.28 µM) in the test with S. aureus N-241; 0.78 µg/mL (≈ 1.28 µM) against S. aureus J-108; 3.13 µg/mL (≈ 5.12 µM) in the test on E. cloacae IFO12937; 0.2 µg/mL (≈ 0.327 µM) in the test on S. aureus 1840 (setting [1]); not above 0.1 µg/mL against S. aureus 308 A-1. Also, the MIC in the test on P. vulgaris IFO3988 was 0.78 µg/mL (≈ 1.28 µM); in the test on S. aureus FDA 209P (setting [2]) it was not above 0.1 µg/mL; against K. pneumoniae DT, 0.78 µg/mL (≈ 1.28 µM); against P. mirabilis IFO3849 it was 3.13 µg/mL (≈ 5.12 µM); against M. morganii IFO3168 it was 0.78 µg/mL (≈ 1.28 µM); against E. coli O-111, not above 0.1 µg/mL. Further, the MIC against E. coli NIHJ JC-2 stood at 0.78 µg/mL (≈ 1.28 µM); against C. freundii IFO12681 it was 0.78 µg/mL (≈ 1.28 µM); against S. marcescens IFO12648 it was 1.56 µg/mL (≈ 2.55 µM); in the test on P. aeruginosa IFO3455, 12.5 µg/mL (≈ 20.4 µM).
Take `CO/N=C(\C(=O)N[C@@H]1C(=O)N2C(C(=O)O)=C(CSc3nnnn3CCCNC(=N)N)CS[C@H]12)c1csc(N)n1` [Example 8, 7β-[2-(2-Aminothiazol-4-yl)-(Z)-2-methoxyiminoacetamido]-3-[[1-(3-guanidinopropyl)-1H-tetrazol-5-yl]thiomethyl]-3-cephem-4-carboxylic acid]: the MIC was found to be 0.39 µg/mL (≈ 0.654 µM) with E. coli T 7; 12.5 µg/mL (≈ 20.9 µM) against S. aureus N-241; 6.25 µg/mL (≈ 10.5 µM) against S. aureus J-108; 0.39 µg/mL (≈ 0.654 µM) against E. cloacae IFO12937; 0.78 µg/mL (≈ 1.31 µM) in the test with S. aureus 1840 (setting [1]); 0.78 µg/mL (≈ 1.31 µM) against S. aureus 308 A-1. In addition, the MIC against P. vulgaris IFO3988 is not above 0.1 µg/mL; against S. aureus FDA 209P (18 h), 0.78 µg/mL (≈ 1.31 µM); against K. pneumoniae DT it was not above 0.1 µg/mL; in the test with P. mirabilis IFO3849, 0.39 µg/mL (≈ 0.654 µM); in the test with M. morganii IFO3168, not above 0.1 µg/mL; against E. coli O-111 it was not above 0.1 µg/mL. Further, the MIC against E. coli NIHJ JC-2 is not above 0.1 µg/mL; against C. freundii IFO12681 it was not above 0.1 µg/mL; with S. marcescens IFO12648, not above 0.1 µg/mL; in the test with P. aeruginosa IFO3455, 6.25 µg/mL (≈ 10.5 µM).

The term MIC denotes the lowest concentration found to suppress growth.
